According to patent US20100239652A1, “IMMUNOLIPOSOMES FOR TREATMENT OF CANCER” (UNIVERSITATSSPITAL BASEL, priority 2008, published 2010):
In brackets after ≈: the same amount, converted by molar mass.

Assays:
[1] = tested on: MDA-MB-231 wild type xenograft; assay: Tumor xenograft model, wild type; type: in vivo; conditions: for antitumor effect (tumor growth): i.v. 10 mg doxorubicin/kg once weekly for 3 weeks, total 30 mg dox/kg, compared to saline
Procedure: (§1) Efficacy for non-targeted liposomes versus anti-EGFR immunoliposomes were studied in the MDA-MB-231 wild type and resistant breast cancer xenograft tumor model. Swiss nu/nu mice (5-6 weeks; Charles River, France) were injected subcutaneously (s.c.) with EGFR-overexpressing MDA-MB-231 tumor cells (1×10^7 cells, wild type or resistant) into the back of the animal. […] Free drug was injected on the same schedule as liposomes or immunoliposomes intravenously at their MTD of 30 mg dox/kg for doxorubicin. In control groups, saline was administered intravenously at the same injection volume and schedule.
(§2) Tumor growth was monitored for a period of 55-100 days post tumor implantation. Mice were weighted and examined for toxicity three times a week. Tumor measurements were performed 2-3 times weekly using a caliper, and tumor volumes were calculated using the equation: (length × width^2)/2.
In the wild-type MDA-MB-231 xenograft model lacking mdr features, anti-EGFR immunoliposome-dox was administered i.v. at a total dose of 30 mg dox/kg divided into three weekly doses of 10 mg/kg. […] Control treatments included: saline; free doxorubicin and non-targeted liposomal doxorubicin (commercial pegylated liposomal doxorubicin; PLD) at the same dose and schedule as immunoliposomes.
(§3) In addition, a multivariate (rank) test was performed based on the sums of ranks for each mouse. Tumor size at each time point after last treatment was ranked across all mice for that day and the ranks were summed. The sum of the ranks was compared in each case for two treatments by a 2-sample t-test (42).

MDA-MB-231 Vb100 = assay: Cytotoxicity study, MTT staining; type: cell-based, human
Procedure: (§4) Specific cytotoxicity of EGFR-targeted immunoliposomes containing doxorubicin was evaluated in target cells plated at a density of 8,000 cells per well in 96-well plates and allowed to grow overnight. Immunoliposomes or control treatments were applied for 2 h at 37° C., followed by washing with PBS and re-adding growth media. Cells were further incubated at 37 DC for 3 days and analyzed for cell viability using 3-(4,5-dimethylthiazol-2-yl)-2,5-diphenyl tetrazolium bromide (MTT) staining (41). For the cytotoxicity studies using the efflux pump inhibitor verapamil, this compound was added to the media at a concentration of 100 μM during the complete experiment.

HT-29 WT = assay: Cytotoxicity study, MTT staining; type: cell-based, human
Procedure: as §4

HT-29 RDB = assay: Cytotoxicity study, MTT staining; type: cell-based, human
Procedure: as §4

[2] = tested on: MDA-MB-231 Vb100 xenograft; assay: Tumor xenograft model, multi-drug resistant; type: in vivo; conditions: i.v. 10 mg doxorubicin/kg once weekly for 3 weeks, total 30 mg dox/kg, compared to saline
Procedure: as §1, §2
Comparators included saline, free doxorubicin and non-targeted liposomal doxorubicin (commercial pegylated liposomal doxorubicin; PLD) at the same dose and schedule as immunoliposomes.
as §3

MDA-MB-231/mdr cells = assay: Accumulation of doxorubicin in the cytoplasma and nuclei; type: cell-based, human; conditions: multidrug resistant tumor cells
Procedure: For comparative accumulation studies, tumor cells (HT-29, HT-29 ROB, MDA-MB-231 or MDA-MB-231 Vb100) have been plated at a density of 200,000 cells per well in 12-well plates. Free doxorubicin, non-targeted liposomal doxorubicin (PLD) and immunoliposomal doxorubicin have been applied at a doxorubicin concentration of 3 μg/ml for 2 h at 37° C., followed by 2 washing rounds with media. Verapamil was added to the experiment in a concentration of 0, 10 or 100 μM. After another 2 h incubation without any treatment cells were analyzed as follows:
After removing the media, cells were washed once with 1 ml of culture medium containing FCS, followed by 1 ml of PBS with calcium and magnesium at room temperature (RT) for 3 min. […] For nuclear accumulation of doxorubicin the pellet with the nuclei was washed twice with 500 μl PBS containing 1% C100T and using subsequent centrifugation as described before. After careful removing of the final supernatant, doxorubicin from the pellets was extracted overnight by 400 μl 50% acid methanol.
From both cytoplasmic and nuclear extracts, 300 μl were transferred into a 96-well plate and measured by a “SpertraMax Gemini Fluorimeter” (Molecular Devices).

Row | Molecule | antitumor effect (tumor growth) [1] | IC50 (MDA-MB-231 Vb100; highly drug resistant, 2 h treatment, MTT after 3 days) [µg/mL] | IC50 (MDA-MB-231 Vb100; in the presence of verapamil (100 μM)) [µg/mL] | IC50 (HT-29 WT; non-resistant HT-29 cells, summary in description) [μg dox/ml] | IC50 (HT-29 WT; treatment for 2 h, MTT after 3 days) [µg/mL] | IC50 (HT-29 RDB; HT-29/mdr cells, summary in description) [μg dox/ml] | IC50 (HT-29 RDB; treatment for 2 h, MTT after 3 days, multi-drug resistant sub cell line) [µg/mL] | antitumor effect (tumor growth) [2] | antitumor effect (tumor growth) ([2]; listed as free doxorubicin) | intracellular distribution (MDA-MB-231/mdr cells) | tumor regrowth during follow-up ([1]; after day 77 until end of observation (day 100))
1 | COc1cccc2c1C(=O)c1c(O)c3c(c(O)c1C2=O)C[C@@](O)(C(=O)CO)C[C@@H]3O[C@H]1C[C@H](N)[C@H](O)[C@H](C)O1 [free dox, doxorubicin] | some tumor growth inhibition | 130 (≈ 239 µM) | 0.9 | 0.36 | 0.3 (≈ 0.552 µM) | 6.0 | 9.5 (≈ 17.5 µM) | failed to show any activity | did not show any tumor growth inhibition | efficiently pumped out | 
2 | EMD72000-ILs-dox (conjugate, chains of the INN, looked up, doxorubicin-loaded immunoliposomes) VH: QVQLVQSGAEVKKPGASVKVSCKASGYTFTSHWMHWVRQAPGQGLEWIGEFNPSNGRTNYNEKFKSKATMTVDTSTNTAYMELSSLRSEDTAVYYCASRDYDYDGRYFDYWGQGTLVTVSS VL: DIQMTQSPSSLSASVGDRVTITCSASSSVTYMYWYQQKPGKAPKLLIYDTSNLASGVPSRFSGSGSGTDYTFTISSLQPEDIATYYCQQWSSHIFTFGQGTKVEIK | substantial tumor regressions |  |  |  |  |  |  | substantial tumor regressions |  |  | did not show growth activity
